Measurements: patent US6342498B1, “Arylpiperazines as serotonin reuptake inhibitors and 5-HT1Dα antagonists” (Eli Lilly and Company, priority 1997, dated 2002)
Structures can show the parent of a compound that is named as a salt.

| melting point [°C] | Compound |
| --- | --- |
| 131 to 133 | COc1ccccc1N1CCN(CCCCN2CC=C(c3c[nH]c4cc(Cl)ccc34)CC2)CC1 |
| 91 to 95 | COc1ccccc1N1CCN(CCNCCCN2CCC(c3c[nH]c4cc(Cl)ccc34)CC2)CC1 (as salt: hydrochloride) [Example 10, N-(2-(4-(2-methoxyphenyl)piperazin-1-yl)eth-1-yl)-N-3-(4-(6-chloroindol-3-yl)-piperidin-1-yl)prop-1-ylamine tetrahydrochloride] |
| 113 to 115 | COc1ccccc1N1CCN(CCCCCN2CCC(c3c[nH]c4cc(F)ccc34)CC2)CC1 (as salt: hydrochloride) [Example 19, 1-(2-methoxyphenyl) -4-(5-(4-(6-fluoroindole-3-yl) -piperidin-1-yl)pent-1-yl)piperazine trihydrochloride] |
| 139 to 141 | COc1ccccc1N1CCN(CCCCCN2CCC(c3c[nH]c4cc(Cl)ccc34)CC2)CC1 (as salt: hydrochloride) [Example 20, 1-(2-methoxyphenyl) -4-(5-(4-(6-chloroindole-3-yl) -piperidin-1-yl)pent-1-yl)piperazine trihydrochloride] |
| 185 to 187 | COc1ccccc1N1CCN(CCCCCCN2CCC(c3c[nH]c4cc(Cl)ccc34)CC2)CC1 (as salt: hydrochloride) [Example 21, 1-(2-methoxyphenyl)-4-(6-(4-(6-chloroindol-3-yl)-piperidin-1-yl)hex-1-yl)piperazine trihydrochloride] |
| 145 to 147 | COc1ccccc1N1CCN(CCCCCCN2CCC(c3c[nH]c4cc(F)ccc34)CC2)CC1 (as salt: hydrochloride) [Example 22, 1-(2-methoxyphenyl)-4-(6-(4-(6-fluoroindol-3-yl)-piperidin-1-yl)hex-1-yl)piperazine trihydrochloride] |
| 175 to 177 | COc1ccccc1N1CCN(CCNC(=O)CCN2CC=C(c3c[nH]c4cc(F)ccc34)CC2)CC1 [Example 1, N-(2-(4-(2-methoxyphenyl)piperazin-1-yl)eth-1-yl)-3-(4-(6-fluoroindol-3-yl)-1,2,3,6-tetrahydropyridin-1-yl)propanamide] |
| 181 to 183 | COc1ccccc1N1CCN(CCNC(=O)CCN2CC=C(c3c[nH]c4cc(Cl)ccc34)CC2)CC1 [Example 2, N-(2-(4-(2-methoxyphenyl)piperazin-1-yl)eth-1-yl)-3-(4-(6-chloroindol-3-yl)-1,2,3,6-tetrahydropyridin-1-yl)propanamide] |
| 82 to 84 | COc1ccccc1N1CCN(CCNCCCN2CC=C(c3c[nH]c4cc(F)ccc34)CC2)CC1 [Example 6, N-(2-(4-(2-methoxyphenyl)piperazin-1-yl)eth-1-yl)-N3-(4-(6-fluoroindol-3-yl)-1,2,3,6-tetrahydropyridin-1-yl)prop-1-ylamine] |
| 71 to 73 | COc1ccccc1N1CCN(CCNCCCN2CC=C(c3c[nH]c4cc(Cl)ccc34)CC2)CC1 [Example 7, N-(2-(4-(2-methoxyphenyl)piperazin-1-yl)eth-1-yl)-N-3-(4-(6-chloroindol-3-yl)-1,2,3,6-tetrahydropyridin-1-yl)prop-1-ylamine] |
| 78 to 80 | COc1ccccc1N1CCN(CCNCCN2CC=C(c3c[nH]c4cc(Cl)ccc34)CC2)CC1 [Example 12, N-(2-(4-(2-methoxyphenyl)piperazin-1-yl)eth-1-yl), N-2-(4-(6-chloroindol-3-yl)-1,2,3,6-tetrahydropyridin-1-yl)eth-1-ylamine] |
| 105 to 107 | COc1ccccc1N1CCN(CCCCCCN2CC=C(c3c[nH]c4cc(F)ccc34)CC2)CC1 [Example 14, 1-(2-methoxyphenyl)-4-(6-(4-(6-fluoroindole-3-yl)-1,2,3,6-tetrahydropyridin-1-yl)hex-1-yl)piperazine] |
| 126 to 128 | COc1ccccc1N1CCN(CCCCCN2CC=C(c3c[nH]c4cc(Cl)ccc34)CC2)CC1 [Example 15, 1-(2-methoxyphenyl)-4-(5-(4-(6-chloroindole-3-yl)-1,2,3,6-tetrahydropyridin-1-yl)pent-1-yl)piperazine] |
| 69 to 71 | COc1ccccc1N1CCN(CCCCCN2CC=C(c3c[nH]c4cc(F)ccc34)CC2)CC1 [Example 16, 1-(2-methoxyphenyl)-4-(5-(4-(6-fluoroindole-3-yl)-1,2,3,6-tetrahydropyridin-1-yl)pent-1-yl)piperazine] |
